Data on four compounds can be found in patent US20070003565A1 (priority 2003, published 2007).

In brackets after ≈: the same amount, converted by molar mass. Residues, ends and D or L forms follow the SMILES beside them.

Data set [1] has as its system No.04 coronavirus.
In data set [2] the test system is No.04 coronavirus. Briefly: microbe, parasite or virus in culture. To be noted: Severe acute respiratory syndrome coronavirus.
The subject of data set [3] is MT-4 cells. Kind of data set: Cytotoxicity to MT-4 cells (MTT method). It is filed as cell-based. The settings on record: 12000 ng/ml to 24 ng/ml, 6 days. The method, then: Then test drugs were added. […] Cell growth was subsequently determined by the MTT method.

As for `Nc1nc(O)c2ncn(COC(CO)CO)c2n1` [Ganciclovir, ganciclovir], the “treatment index (TI)” value in data set [1] (CPE method, 293 cells) is on record as 256. In addition, in data set [2] (HEK293, read-out: half-inhibitory concentration (IC50)), the IC50 is 11.7 µg/mL (≈ 45.8 µM). Besides, the MIC in data set [2] (read-out: minimum inhibitory concentration (MIC)) came out at 23.4 µg/mL (≈ 91.8 µM).
As for `CC[C@H](C)[C@H](NC(=O)[C@@H](NC(=O)[C@@H]1CCCN1C(=O)[C@H](CC(=O)O)NC(=O)[C@H](Cc1c[nH]cn1)NC(=O)[C@@H](NC(=O)[C@@H](N)CCSC)[C@@H](C)O)C(C)C)C(=O)N[C@@H](CO)C(=O)N[C@@H](CC(C)C)C(=O)N1CCC[C@H]1C(=O)N[C@H](C(=O)N[C@H](C(=O)O)[C@@H](C)O)[C@@H](C)O` [HAb18G-AP-1] (H-MTHDPVISLPTT-OH), the “cell growth of MT-4 cells (in words)” value in data set [3] is given as “cell growth was not affected”.
`N=C(N)NCCC[C@H](NC(=O)[C@H](Cc1c[nH]cn1)NC(=O)[C@H](Cc1c[nH]c2ccccc12)NC(=O)[C@H](Cc1c[nH]cn1)NC(=O)[C@H](CCCCN)NC(=O)[C@H](Cc1c[nH]cn1)NC(=O)[C@H](Cc1c[nH]cn1)NC(=O)[C@H](Cc1ccccc1)NC(=O)[C@@H]1CCCN1C(=O)[C@@H](N)Cc1ccc(O)cc1)C(=O)N1CCC[C@H]1C(=O)N[C@@H](CC(N)=O)C(=O)O` [HAb18G-AP-6, Tyr Pro Phe His His Lys His Typ His Arg Pro Asn] (H-YPFHHKHWHRPN-OH): in data set [1] (24 h), the “half-inhibitory concentration (IC50)” value worked out at 31.25 ± 0 µg/mL and the “minimum inhibitory concentration (MIC)” value was 62.25 ± 0 µg/mL (≈ 37.6 µM). For the same compound, in data set [3], the “cell growth of MT-4 cells (in words)” value is “cell growth was not affected”.
As for `CC(C)C[C@H](NC(=O)[C@H](CCCCN)NC(=O)[C@@H](N)Cc1ccc(O)cc1)C(=O)N1CCC[C@H]1C(=O)NCC(=O)N[C@@H](Cc1c[nH]cn1)C(=O)N[C@@H](Cc1c[nH]cn1)C(=O)N[C@@H](Cc1c[nH]cn1)C(=O)N[C@@H](Cc1c[nH]cn1)C(=O)N[C@@H](Cc1ccc(O)cc1)C(=O)N[C@@H](CCCNC(=N)N)C(=O)N1CCC[C@H]1C(=O)O` [HAb18G-AP-9] (H-YKLPGHHHHYRP-OH), in data set [3], the “cell growth of MT-4 cells (in words)” value is reported as “cell growth was not affected”.
